Experimental data taken from publication PMC10029098 (Chembiochem : a European journal of chemical biology, 2022).
Values joined by “and” are separate entries in the source; they are usually repeats but may differ in a detail not shown here. Equal entries are not always repeated. Ends that are not written are not given here.

Assays:
[1] = Thermodynamic solubility measurement; type: physicochemical; conditions: potassium phosphate buffer, pH 7.4, aqueous buffer, thermodynamic from solid
[2] = Far-UV CD spectroscopy, thermal denaturation; type: physicochemical; conditions: calculated at 293K from best-fitted melting curves of thermal denaturation recorded by CD; phosphate buffer 15 mM, pH 6.5; RC = random coil
[3] = target: PD1/PDL1 interaction (Homo sapiens, UniProt Q15116); assay: PD1 ImmunoBlocking ELISA; type: biochemical
Chain of PD1/PDL1 interaction (Q15116 25-167 limits assumed): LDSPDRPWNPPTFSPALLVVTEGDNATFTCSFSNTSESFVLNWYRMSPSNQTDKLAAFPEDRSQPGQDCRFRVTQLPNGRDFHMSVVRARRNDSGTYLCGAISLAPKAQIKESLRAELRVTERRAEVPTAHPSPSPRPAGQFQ

[4] = target: PD1 (Homo sapiens, UniProt Q15116); assay: UV/Vis-colorimetric PDL1-competitive binding kinetics assay
Chain of PD1 (Q15116 25-167 limits assumed): as above

| solubility thermodynamic [1] | EC50 [3] | Ki [4] | Sequence | %-Fold, hairpin folded fraction (χF) [2] |
| --- | --- | --- | --- | --- |
| 900 ± 100 µM | < 600 nM and 290 nM | 41 nM | RWVARRDYRFDMGFDYWVWE [1e] |  |
| 300 ± 100 µM | 3700 ± 1020 nM |  | RWCARRDYRFDMGFDYWGWE [1c] |  |
| 3400 ± 100 µM |  |  | RWVARRDYRGDMGFDYWVWE [1d] |  |
|  |  |  | RWVWRRDYRFDMGFDYWVWE [2c] | 54 ± 1% |

| Sequence | solubility thermodynamic [1] | EC50 [3] | Ki [4] | %-Fold, hairpin folded fraction (χF) [2] |
| --- | --- | --- | --- | --- |
| RWVWGGGGKKGGGGWVWE [2a] | 5800 ± 200 µM |  |  | 87 ± 1% |
| RWVWRRDYRGDMGFDYWVWE [2b] | 600 ± 100 µM |  |  | 81 ± 1% |
